Measured values as given in patent US11633443B2, “Algal extract comprising sulphated and non-sulphated polyanionic polysaccharides and uses thereof” (Amadeite, priority 2012, dated 2023).
“Also recorded” adds a separate entry of the source. Where a name gives a salt, the structure may show the parent alone.

Test system: adult male Wistar rats
Assay: Behavioural despair test (BDT)
Type: in vivo, rat
Description: The anti-depressant effects of an algal extract according to the invention (AE), administered orally as a preventive treatment with 3 doses (10, 20 and 40 mg/kg/d) were evaluated in adult male Wistar rats in the behavioural despair test (BDT).
The extract was daily administered as a semi-chronic treatment for 14 days. The effects of the extract were evaluated in the BDT on groups of 12 rats as compared with a control batch treated with the carrier (spring water) and a reference batch treated with Imipramine at the dose of 10 mg/kg/d.
Sixty male Wistar rats (Charles River Laboratories, France) weighing from 200-225 g were used. Upon receiving them, the rats were marked and distributed in groups of 4 in polycarbonate cages of the F type (48×27×20 cm, U.A.R., 91-Epinay-Sur-Orge, France). The animals were housed in an air-conditioned animal housing facility, at a temperature of 22±2° C. and a relative humidity of 50±20%. The rats had standard feed 2016 (Harlan, Gannat, France) and drink ad libitum. They were subject to a reverse light-darkness cycle of 12 hours.
After getting used to the conditions of the laboratory for one week, the rats were weighed and randomized according to their weight in 5 treatment groups (n=12/group).
The experimental devices consisted in Plexiglas cylinders with a height of 50 cm and a diameter of 20 cm filled with water at 25° C. up to a height of 30 cm.
After 13 days of daily treatment with the products to be tested, the rats were placed at D14 in the devices for a period of 15 minutes in order to evaluate the immobility time of each animal. Immediately after this first test, the rats received their 14th treatment.
At D15, the rats received two treatments: the first, 5 hours before the test and the second 1 hour before the test. This procedure is usually used in the literature for testing the efficiency of a product against depression. The test was conducted under the same conditions as the day before for a period of 5 minutes.
The recorded immobility duration during the first 5 minutes of both tests (at D14 and D15) reflects the capacity of the animal of resigning itself when it is confronted with a situation from which it cannot escape. This resignation behaviour is assimilated with depression.
The product is an AE (algal extract) as a powder representing a freeze-dried and crushed concentrated fraction of a water-soluble algal extract prepared according to Example no. 1. The extract to be tested was dissolved in spring water and was administered to the rats orally at one of the 3 tested doses for 15 successive days with an administration volume of 5 ml/kg. The animals were weighed every two or three days in order to adapt their specific treatments to their weight. Their food and water intakes were noted every two or three days during the whole duration of the study.
The animals of the Reference group receive daily 10 mg/kg/d of Imipramine hydrochloride (Sigma Aldrich) dissolved in spring water with an administration volume of 5 ml/kg.
ANOVA in parametric mode was applied, followed, in the case of heterogeneity, by comparisons by means of the non-paired t-test for comparing the treated groups with the Carrier group and the Reference group.
Paired ANOVA was used, followed, in the case of heterogeneity, by comparisons with the paired t-test for two by two comparisons of repeated measurements of BDT in each of the groups.

## CN(C)CCCN1c2ccccc2CCc2ccccc21 [Imipramine, Imipramine hydrochloride]
10 mg/kg/d
  immobility time at D15 compared with the Carrier (in words): significantly shorter
10 mg/kg/d orally, 5 minutes test, n = 12
  Immobility duration in the behavioural despair test at D15 (Average ± ESM): 3.8 ± 1.0 s
10 mg/kg/d orally, first 5 minutes, n = 12
  Immobility duration in the behavioural despair pre-test at D14 (Average ± SME): 16.3 ± 4.6 s
10 mg/kg, hydrochloride
  change of immobility time between D14 and D15 (in words): significantly decrease; also recorded: significantly reduced
Imipramine 10 mg/kg, AE at the three tested doses (10, 20, 40 mg/kg)
  immobility duration at D14: difference between Carrier, Imipramine and AE groups: no significant difference
